5 compounds from patent US6946446B2, “Anti-infective agents useful against multidrug-resistant strains of bacteria” (Abbott Laboratories, priority 2000, dated 2005) can be followed below.

In brackets after ≈: the same amount, converted by molar mass.

In general, MIC refers to the smallest concentration in the dilution series that meets the test's criterion for growth inhibition.

One experiment concerns S. aureus A-5278. In words: In vitro antibacterial activity, agar dilution MIC. The class given is cell-based, Staphylococcus aureus. To be noted: BHI agar dilution, 35-37° C., 20 to 24 hours. The method, then: (§1) Representative compounds of the present invention were assayed in vitro for antibacterial activity as follows: Petri dishes containing successive aqueous dilutions of the test compound mixed with 10 mL of sterilized Brain Heart Infusion (BHI) agar (Difco 0418-01-5) were prepared. Each plate was inoculated with 1:100 dilutions of a different microorganism, using a Steers replicator block. The inoculated plates were incubated at 35-37° C. for 20 to 24 hours. In addition, a control plate, using BHI agar containing no test compound, was prepared and incubated at the beginning and end of each test.
(§2) An additional plate containing a compound having known susceptibility patterns for the organisms being tested and belonging to the same antibiotic class as the test compound was also prepared and incubated as a further control, as well as to provide test-to-test comparability. Erythromycin A was used for this purpose.
(§3) After incubation, each plate was visually inspected. The minimum inhibitory concentration (MIC) was defined as the lowest concentration of drug yielding no growth, a slight haze, or sparsely isolated colonies on the inoculum spot as compared to the growth control.
On the technique in general: Agar dilution tests growth on a series of plates holding different concentrations.

In experiment [1] the test system is Resistant Staphylococcus aureus 1775. Nature of the experiment: In vitro antibacterial activity, agar dilution MIC. Format: cell-based. Particulars: BHI agar dilution, 35-37° C., 20 to 24 hours. On the procedure: as §1, §2, §3

Take `CC[C@H]1OC(=O)[C@H](C)[C@@H](O[C@H]2C[C@@](C)(OC)[C@@H](O)[C@H](C)O2)[C@H](C)[C@@H](O[C@@H]2O[C@H](C)C[C@H](N(C)C)[C@H]2O)[C@](C)(O)C[C@@H](C)C(=O)[C@H](C)[C@@H](O)[C@]1(C)O` [Erythromycin, Erythromycin A, reference compound]: the “MIC S. aureus A-5278” value in the experiment on S. aureus A-5278 was greater than 100 µg/mL. Moreover, in experiment [1], the “MIC S. aureus 1775” value was greater than 100 µg/mL.

Turning to `COc1cccc(OC)c1C(=O)N[C@@H]1C(=O)N2[C@@H]1SC(C)(C)[C@@H]2C(=O)O` [Methicillin, reference compound], the minimal inhibitory concentration (MIC) was greater than 100 µg/mL with S. aureus A-5278 (Staphylococcus aureus, A5278) and greater than 100 µg/mL in experiment [1] (Staphylococcus aureus, read-out: MIC S. aureus 1775).

`CCC1OC(=O)C(C)C(OC2CC(C)(OC)C(O)C(C)O2)C(C)C(OC2OC(C)CC(N(C)C)C2O)C(C)(OCc2cccc(I)c2)CC(C)C(=NO)C(C)C(O)C1(C)O` (stereo not shown) [Ex. 12, 6-O-[(3-Iodo)benzyl]-9-oxime Erythromycin A]: the “MIC S. aureus A-5278” value against S. aureus A-5278 was found to be 25 µg/mL (≈ 25.9 µM). Moreover, in experiment [1], the “MIC S. aureus 1775” value is 25 µg/mL (≈ 25.9 µM).

With `CCON=C1C(C)CC(C)(OCC=Cc2cnc3ccccc3c2)C(OC2OC(C)CC(N(C)C)C2O)C(C)C(=O)C(C)C(=O)OC(CC)C(C)(O)C(O)C1C` (stereo not shown) [Ex. 1, 6-O-[3-(3-quinolyl)-2-propen-1-yl]-3-descladinose-3-oxo-9-[(O-ethyl)oxime] Erythromycin A], the “MIC S. aureus A-5278” value in the experiment on S. aureus A-5278 was found to be 25 µg/mL (≈ 31.9 µM). Also, the “MIC S. aureus 1775” value in experiment [1] was found to be 12.5 µg/mL (≈ 15.9 µM).

As to `CCC1OC(=O)C(C)C(OC2CC(C)(OC)C(O)C(C)O2)C(C)C(OC2OC(C)CC(N(C)C)C2O)C(C)(OCc2ccc(-c3ccccc3)cc2)CC(C)C(=NO)C(C)C(O)C1(C)O` (stereo not shown) [Ex. 13, 6-O-[(4-Phenyl)benzyl]-9-oxime Erythromycin A], the “MIC S. aureus A-5278” value in the experiment on S. aureus A-5278 came out at 50 µg/mL (≈ 54.6 µM). Also, the “MIC S. aureus 1775” value in experiment [1] came to 25 µg/mL (≈ 27.3 µM).
